Data from ChEMBL document CHEMBL5728572, “Thiadiazole IRAK4 compounds” (2021).

Target: T1, Interleukin-1 receptor-associated kinase 4 (Homo sapiens, UniProt Q9NWZ3)
T1 sequence (Q9NWZ3 whole entry): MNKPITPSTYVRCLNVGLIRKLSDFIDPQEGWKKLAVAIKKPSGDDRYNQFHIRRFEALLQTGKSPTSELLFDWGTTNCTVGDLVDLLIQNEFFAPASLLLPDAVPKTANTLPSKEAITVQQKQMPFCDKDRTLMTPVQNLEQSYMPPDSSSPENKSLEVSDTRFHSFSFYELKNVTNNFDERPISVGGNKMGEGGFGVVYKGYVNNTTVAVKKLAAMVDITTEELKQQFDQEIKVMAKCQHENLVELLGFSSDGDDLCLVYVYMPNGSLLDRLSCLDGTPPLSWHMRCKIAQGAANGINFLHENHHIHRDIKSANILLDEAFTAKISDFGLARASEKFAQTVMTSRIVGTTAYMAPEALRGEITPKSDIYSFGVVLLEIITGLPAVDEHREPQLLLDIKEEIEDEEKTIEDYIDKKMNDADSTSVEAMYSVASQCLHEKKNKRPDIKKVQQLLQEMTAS
Experiment: IRAK4 Biochemical Assay: IRAK4 enzyme (Carna Biosciences, Chuo-ku, Kobe, Japan) activity was measured by detecting phosphorylated peptide substrate formation using an antibody against the phosphorylated peptide substrate. This is a time-resolved fluorescence resonance energy transfer (TR-FRET) immunoassay, based on the STK1 KinEASE Assay (Cisbio, Bedford, Mass.). The assay was designed as a simple two-step, endpoint assay (a 5 μl enzyme reaction followed by 5 μl stop and detect Solution) performed in ProxiPlate-384 Plus plates (Perkin Elmer, Waltham, Mass.). Staurosporine, a non-selective kinase inhibitor was used as a positive control. Compounds diluted in DMSO were spotted into 384 well plates using a Labcyte® Echo 550 Liquid Handling System prior to addition of IRAK4 enzyme and peptide substrate. Reaction solutions were delivered using a Multi-Flo (Bio-Tek Instruments). The enzyme and peptide solution was incubated with compound for 15 minutes at room temp before the reaction was initiated by the addition of ATP. The standard 5 μl reaction mixture contained 500 μM ATP, […] (STK1 Peptide), 0.75 nM of IRAK4 in reaction buffer (50 mM HEPES, pH 7.0, 0.02% NaN3, 0.01% BSA, 0.1 mM Orthovanadate, 5 mM […], 0.025% NP-40, 1 mM DTT). […]

- IC50: 1.8 nM
SMILES: CC(C)Nc1cc(-c2ccc3cc(C#N)cnn23)ncc1-c1nnc(N2CCCC2)s1
